Experiments:
[1] = molecular target: T1, Aldehyde Dehydrogenase (Yeast ALDH) (Saccharomyces cerevisiae, UniProt P46367); assay: ALDH assay by spectroscopic method (screening for ALDH activity); format: biochemical; details: substrate reagent 50 μM in 0.1M TrisHCl pH 8.0, change in absorbance or fluorescence as a function of time
T1 sequence (P46367 25-519): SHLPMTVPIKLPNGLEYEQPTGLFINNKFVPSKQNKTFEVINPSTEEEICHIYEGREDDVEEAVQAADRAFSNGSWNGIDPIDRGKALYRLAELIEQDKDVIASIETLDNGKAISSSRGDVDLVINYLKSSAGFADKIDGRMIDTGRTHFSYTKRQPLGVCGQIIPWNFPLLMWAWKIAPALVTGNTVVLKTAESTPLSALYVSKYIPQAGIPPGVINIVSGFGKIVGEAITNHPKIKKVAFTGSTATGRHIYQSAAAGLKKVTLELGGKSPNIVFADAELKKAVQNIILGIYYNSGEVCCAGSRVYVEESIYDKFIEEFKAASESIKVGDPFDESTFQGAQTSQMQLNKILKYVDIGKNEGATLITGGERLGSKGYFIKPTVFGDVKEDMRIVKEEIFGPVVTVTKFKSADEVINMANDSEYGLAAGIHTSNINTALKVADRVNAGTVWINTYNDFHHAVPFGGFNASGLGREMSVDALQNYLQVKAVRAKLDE
Description: Aldehyde Dehydrogenase is an enzyme that acts on aldehydes as substrates and converts them to acid (products).
Designing and Standardization of ALDH Assay: • following the conversion of NAD+ to NADH typically one does the ALDH assays.
[drawing 72] • The formation of NADH is monitored by measuring the absorbance at 340 nm. However, before employing this method, the compounds were screened for their spectral properties, especially to avoid any interference in absorbance either from the substrate or the product.
Such compounds were further screened for their fluorescence properties by recording their excitation/emission wavelengths.
ALDH Assay by Spectroscopic Method: • The ALDH assay is designed to measure either the utilization of the substrate or formation of product by measuring at their unique wavelengths (Absorbance or Fluorescence).
All the spectral studies for the compounds were carried out in 0.1M Tris HCl pH 8.0 buffer. CSCT Compounds were initially dissolved in Methanol (˜2.0 mg/mL). The compounds were further diluted in 0.1M Tris HCl pH 8.0 buffer (concentration ranging from ˜20 to 50 μg/mL). The Spectra was recorded using Spectramax M5.
The ALDH activity can be followed either by monitoring the conversion of β-NAD^+ to β-NADH or by directly monitoring the product/substrate. The conversion of β-NAD^+ to β-NADH yields increasing in absorbance at 340 nm. If either the substrate/products have any spectral interference at this wavelength then unique absorbance/fluorescence wavelength of either product/substrate are used. The measurements were taken on Spectromax M5.
• 1. Reagent 1: 1 M Tris HCl Buffer, pH 8.0 at 25° C. (Prepare 50 ml in deionized water using Trizma Base, Sigma Prod. No. T-1503. Adjust to pH 8.0 at 25° C. with 1 M HCl.) • 2. Reagent 2: 20 mM β-Nicotinamide Adenine Dinucleotide, Oxidized Form, Solution (β-NAD^+) (Prepare 1 ml in deionized water using β-Nicotinamide Adenine Dinucleotide, PREPARE FRESH). • 3. Reagent 3: 3 M Potassium Chloride Solution (KCl) (Prepare 1 ml in deionized water using Potassium Chloride). • 4. Reagent 4: 1 M 2-Mercaptoethanol Solution (2-ME) (Prepare 1 ml in deionized water using 2-Mercaptoethanol. PREPARE FRESH.) • 5. Reagent 5: 100 mM Tris HCl Buffer with 0.02% (w/v) Bovine Serum Albumin, pH 8.0 at 25° C. (for Enzyme Dilution). • 6. Reagent 6: Aldehyde Dehydrogenase Enzyme Solution (Yeast ALDH). Immediately before use, prepare a solution containing 0.5-1 unit/ml of Aldehyde Dehydrogenase in cold Reagent 5).
Pipette (in milliliters) the following reagents into vial:
In a 3.00 ml reaction mix, the final concentrations are 103 mM Tris HCl Buffer (Reagent 1), 0.67 mM β-nicotinamide adenine dinucleotide (Reagent 2), 100 mM potassium chloride (Reagent 3), 10 mM 2-mercaptoethanol (Reagent 4), 0.0007% (w/v) bovine serum albumin (Reagent 5) and 0.05-0.1 unit aldehyde dehydrogenase (Reagent 6).

ALDH = assay: Cell based ALDH assay: competition against ALDEFLUOR in SK-BR-3 cells, FACS
Experimental: Briefly, the compound was dissolved in DMSO and competed against ALDEFLUOR™, a BODIPY-conjugated ALDH substrate, in a cell-based assay using SK-BR-3 cells. The BODIPY fluorescence in the cell samples were measured using FACS at 488 nm. The median fluorescence of each sample was measured and fitted to a sigmoidal dose-response curve for calculation of IC50 using Prism Graphpad.
6-(2-fluoroethyloxy)-2-naphthaldehyde was dissolved and diluted in DMSO prior to use.
SK-BR-3 cells, a cell line reported to have a high expression of ALDH+ cells, was used for all experiments. The cells were cultured in RPMI media supplemented with 10% fetal bovine serum and 2 mM L-glutamine, in 37° C., 5% CO2. On the day of assay, cells were harvested by trypsination, centrifuged, and re-suspended in ALDEFLUOR™ assay buffer to a concentration of 1×10^6 cells.
The compound was competed against ALDEFLUOR™, a BODIPY-conjugated ALDH substrate. […] Following incubation at 37° C., the fluorescence was measured in each sample by FACS at 488 nm. […]
The median fluorescence of each sample was calculated, and the values were then normalized and fitted to a dose-response curve for calculation of IC50 using Prism Graphpad.

Structure (SMILES)	Comments (ALDH assay screening result) [1]	IC50 (ALDH; competition against ALDEFLUOR, BODIPY fluorescence by FACS at 488 nm, compound 0.005-50 μM) [nM]	Displacement of ALDEFLUOR (decrease in fluorescence with increasing compound concentration) (ALDH; FACS at 488 nm)
COc1cccc(C=O)c1 [3-anisladehyde]	Active	–	–
O=Cc1ccc(I)cc1 [4-Iodobenzaldehyde]	Active	–	–
O=Cc1ccc(F)cc1 [4-fluorobenzaldehyde]	Active	–	–
O=CCCNC(=O)c1ccc(F)cc1 [Example 2, (2-formylethyl)-4-fluorobenzamide]	Not active	–	–
O=Cc1ccc2cc(OCCCF)ccc2c1 [Example 3, 6-(3-fluororpropyloxy)-2-naphthaldehyde]	Active	–	–

The next lines start with results.

Comments (ALDH assay screening result) [1]	IC50 (ALDH; competition against ALDEFLUOR, BODIPY fluorescence by FACS at 488 nm, compound 0.005-50 μM) [nM]	Structure (SMILES)	Displacement of ALDEFLUOR (decrease in fluorescence with increasing compound concentration) (ALDH; FACS at 488 nm)
Active	–	O=Cc1ccc2ccccc2c1 [2-Naphthaldehyde]	–
Active	–	COc1ccc2cc(C=O)ccc2c1 [6-Methoxy-2-Naphthaldehyde]	–
Active	330	O=Cc1ccc2cc(OCCF)ccc2c1 [Example 3A, 6-(2-fluoroethyloxy)-2-naphthaldehyde]	displaced ALDEFLUOR™

Source: US20130101509A1, “IMAGING AND RADIOTHERAPY METHODS” (GENERAL ELECTRIC COMPANY, priority 2008, published 2013)
